Measured values published in patent US11912701B2, “Protein kinase inhibitors for promoting liver regeneration or reducing or preventing hepatocyte death” (HEPAREGENIX GMBH, priority 2018, dated 2024).

Tests used:
MKK4 [1] = biological target: T1, MKK4 (Homo sapiens, UniProt P45985); test: 33PanQinase enzyme assay, MKK4; assay type: biochemical; settings: assay 'IC50'; read-out: Potency MKK4 (IC50)
T1 construct: purchased ProQinase GmbH, Freiburg, Germany (33PanQinase Assay Service)
T1 sequence (P45985 1-399): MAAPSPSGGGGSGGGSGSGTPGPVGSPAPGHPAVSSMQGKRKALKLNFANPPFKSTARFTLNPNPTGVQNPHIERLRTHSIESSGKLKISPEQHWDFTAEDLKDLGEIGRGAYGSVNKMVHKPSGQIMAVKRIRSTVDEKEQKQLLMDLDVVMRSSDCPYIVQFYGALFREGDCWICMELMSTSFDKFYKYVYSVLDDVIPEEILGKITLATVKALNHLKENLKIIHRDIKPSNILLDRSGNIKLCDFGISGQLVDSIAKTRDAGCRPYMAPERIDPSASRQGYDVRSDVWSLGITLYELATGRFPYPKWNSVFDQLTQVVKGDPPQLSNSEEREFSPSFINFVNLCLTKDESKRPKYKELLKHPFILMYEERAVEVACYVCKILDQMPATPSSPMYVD
In short: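 Radiometric 33PanQinase assay: kinase, substrate, ATP and compound in standard buffer, 60 min at 30 °C; 33Pi incorporation read by scintillation counting.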

MKK4 [2] = biological target: T2, MKK4 (Homo sapiens, UniProt P45985); test: KINOMEscan competition binding assay, MKK4; settings: residual percent of control binding (PoC) at 100 nM
T2 construct: S84/D399; host or cells: HEK-293
T2 sequence (P45985 84-399): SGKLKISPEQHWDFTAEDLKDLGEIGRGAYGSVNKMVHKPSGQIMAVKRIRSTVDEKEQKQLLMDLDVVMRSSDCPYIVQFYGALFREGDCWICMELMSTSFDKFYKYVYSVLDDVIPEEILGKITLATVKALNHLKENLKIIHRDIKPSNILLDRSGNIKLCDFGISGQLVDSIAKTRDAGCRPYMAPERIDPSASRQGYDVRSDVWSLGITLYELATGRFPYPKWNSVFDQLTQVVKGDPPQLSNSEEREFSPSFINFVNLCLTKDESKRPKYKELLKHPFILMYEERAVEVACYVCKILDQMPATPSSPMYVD
In short: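 KINOMEscan competition of compound versus immobilized ligand for DNA-tagged MKK4 expressed in HEK-293 cells. Bound kinase was quantified by qPCR after elution.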

MKK7 [3] = biological target: T3, MKK7 (Homo sapiens, UniProt O14733); test: 33PanQinase enzyme assay, MKK7; assay type: biochemical; design: purchased ProQinase GmbH, Freiburg, Germany (33PanQinase Assay Service); settings: ratio IC50(MKK7)/IC50(MKK4)
T3 sequence (O14733 1-419): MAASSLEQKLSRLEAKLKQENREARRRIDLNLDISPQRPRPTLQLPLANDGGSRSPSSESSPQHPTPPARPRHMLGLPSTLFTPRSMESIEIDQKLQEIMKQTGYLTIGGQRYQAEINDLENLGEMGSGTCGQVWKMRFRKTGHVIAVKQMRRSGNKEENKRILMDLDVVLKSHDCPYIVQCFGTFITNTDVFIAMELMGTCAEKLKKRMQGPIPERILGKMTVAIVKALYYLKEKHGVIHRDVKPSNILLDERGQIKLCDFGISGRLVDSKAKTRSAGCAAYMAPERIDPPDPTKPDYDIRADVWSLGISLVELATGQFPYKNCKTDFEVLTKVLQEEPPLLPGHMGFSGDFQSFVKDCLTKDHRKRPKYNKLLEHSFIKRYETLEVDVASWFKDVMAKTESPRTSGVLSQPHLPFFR
In short: (§1)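 Radiometric 33PanQinase format: kinase with substrate, ATP and compound (added in 10% DMSO stock) incubated 60 min at 30° C, stopped with 2% H3PO4, ^33Pi incorporation counted by scintillation. Single-concentration data given as % residual activity; IC50 by least-squares fit, with selectivity as IC50(off-target)/IC50(MKK4).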

JNK1 [4] = biological target: T4, JNK1 (Homo sapiens, UniProt P45983); test: KINOMEscan competition binding assay, JNK1; design: M1/Q384; host or cells: HEK-293; settings: ratio PoC (off-target)/PoC (MKK4)
In short: (§2)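 DNA-tagged kinases expressed in HEK-293 cells compete between immobilized ligand on blocked beads and test compound at 100 nM; kinase retained on beads quantified by qPCR of the tag.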
Target sequence in this assay (P45983 1-384 isoform P45983-2): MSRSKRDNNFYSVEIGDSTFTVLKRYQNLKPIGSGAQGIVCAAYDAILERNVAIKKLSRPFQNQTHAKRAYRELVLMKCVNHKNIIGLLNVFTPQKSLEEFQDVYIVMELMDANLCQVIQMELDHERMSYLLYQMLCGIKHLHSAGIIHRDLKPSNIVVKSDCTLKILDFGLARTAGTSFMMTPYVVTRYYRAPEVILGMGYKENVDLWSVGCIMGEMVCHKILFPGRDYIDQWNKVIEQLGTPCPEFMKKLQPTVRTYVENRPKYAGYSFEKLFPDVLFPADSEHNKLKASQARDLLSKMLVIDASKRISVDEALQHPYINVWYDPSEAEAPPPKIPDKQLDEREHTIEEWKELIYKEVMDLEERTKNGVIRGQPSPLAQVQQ

JNK1 [5] = biological target: T4, JNK1; test: 33PanQinase enzyme assay, JNK1; assay type: biochemical; design: purchased ProQinase GmbH, Freiburg, Germany (33PanQinase Assay Service); settings: ratio IC50(JNK1)/IC50(MKK4)
In short: as §1
Target sequence in this assay (P45983 whole entry): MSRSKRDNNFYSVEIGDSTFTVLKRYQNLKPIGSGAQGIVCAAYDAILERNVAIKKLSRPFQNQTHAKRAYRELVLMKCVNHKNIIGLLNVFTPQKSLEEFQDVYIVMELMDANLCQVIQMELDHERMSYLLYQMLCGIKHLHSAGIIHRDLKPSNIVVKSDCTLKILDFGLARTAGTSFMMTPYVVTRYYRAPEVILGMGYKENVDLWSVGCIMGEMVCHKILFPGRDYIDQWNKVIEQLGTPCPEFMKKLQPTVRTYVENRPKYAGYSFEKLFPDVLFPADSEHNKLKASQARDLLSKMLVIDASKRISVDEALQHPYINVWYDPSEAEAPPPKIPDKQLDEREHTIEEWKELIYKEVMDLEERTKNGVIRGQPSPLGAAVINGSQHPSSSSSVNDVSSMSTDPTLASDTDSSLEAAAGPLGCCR

MKK7 [6] = biological target: T3, MKK7; test: KINOMEscan competition binding assay, MKK7; design: M1/R419; host or cells: HEK-293; settings: ratio PoC (off-target)/PoC (MKK4)
In short: as §2

BRaf = biological target: T5, BRaf (Homo sapiens, UniProt P15056); test: KINOMEscan competition binding assay, BRaf; settings: ratio PoC (off-target)/PoC (MKK4)
T5 construct: purchased ProQinase GmbH, Freiburg, Germany (33PanQinase Assay Service)
T5 sequence (P15056 whole entry, species assumed): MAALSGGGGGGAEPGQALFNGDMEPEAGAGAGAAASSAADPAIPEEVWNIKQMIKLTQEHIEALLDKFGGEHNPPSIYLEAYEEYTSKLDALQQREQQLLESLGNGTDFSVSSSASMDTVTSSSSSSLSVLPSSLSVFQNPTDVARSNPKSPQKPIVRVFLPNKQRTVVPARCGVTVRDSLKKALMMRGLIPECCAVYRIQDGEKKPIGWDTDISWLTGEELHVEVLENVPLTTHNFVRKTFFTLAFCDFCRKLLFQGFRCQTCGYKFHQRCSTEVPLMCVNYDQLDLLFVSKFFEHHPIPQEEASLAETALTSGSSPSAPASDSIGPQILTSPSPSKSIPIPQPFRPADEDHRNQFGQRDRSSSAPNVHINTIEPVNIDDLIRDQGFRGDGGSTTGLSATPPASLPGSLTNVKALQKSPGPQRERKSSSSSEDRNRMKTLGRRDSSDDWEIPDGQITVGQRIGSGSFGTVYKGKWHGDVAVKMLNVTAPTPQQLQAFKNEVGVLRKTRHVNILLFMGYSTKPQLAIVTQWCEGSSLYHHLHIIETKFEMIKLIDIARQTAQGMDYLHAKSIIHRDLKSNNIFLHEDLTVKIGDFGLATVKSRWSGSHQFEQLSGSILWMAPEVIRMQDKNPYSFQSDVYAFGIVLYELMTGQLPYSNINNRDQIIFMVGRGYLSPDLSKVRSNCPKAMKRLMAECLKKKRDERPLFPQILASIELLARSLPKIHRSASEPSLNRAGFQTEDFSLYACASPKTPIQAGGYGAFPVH
In short: as §2

Row | SMILES | IC50 (MKK4 [1]) [nM] | MKK4 [% Ctrl @ 100 nM (MKK4 [2]) | Selectivity IVIKK7, IC50(off-target)/IC50(MKK4) (MKK7 [3]) | selectivity based on % Ctrl @100 nM vs. JNK1 (JNK1 [4]) | Selectivity JNK1, IC50(off-target)/IC50(MKK4) (JNK1 [5]) | selectivity based on % Ctrl @100 nM vs. MKK7 (MKK7 [6]) | selectivity based on % Ctrl @100 nM vs. Braf (BRaf)
1 | CCCS(=O)(=O)Nc1ccc(F)c(C(=O)c2c[nH]c3ncc(-c4nc[nH]n4)cc23)c1F [Example 85, N-(3-(5-(1H-1,2,4-triazol-3-yl)-1H-pyrrolo[2,3-b]pyridine-3-carbonyl)-2,4-difluorophenyl)propane-1-sulfonamide] | 1000 to 10000 | + (3 ≤ PoC < 30) | ++ (100 ≥ IC50(off-target)/IC50(MKK4) > 10) | ++ (100 ≥ ratio > 10) | ◯ (3 ≥ IC50(off-target)/IC50(MKK4)) | ++ (100 ≥ ratio > 10) | ◯ (3 ≥ Ratio)
2 | CCCS(=O)(=O)Nc1ccc(F)c(C(=O)c2c[nH]c3ncc(-c4nncs4)cc23)c1F [Example 86, N-(3-(5-(1,3,4-thiadiazol-2-yl)-1H-pyrrolo[2,3-b]pyridine-3-carbonyl)-2,4-difluorophenyl)propane-1-sulfonamide] | 1000 to 10000 | + (3 ≤ PoC < 30) | ++ (100 ≥ IC50(off-target)/IC50(MKK4) > 10) | ++ (100 ≥ ratio > 10) | ◯ (3 ≥ IC50(off-target)/IC50(MKK4)) | ++ (100 ≥ ratio > 10) | ◯ (3 ≥ Ratio)
3 | CCCS(=O)(=O)Nc1ccc(F)c(C(=O)c2c[nH]c3ncc(-c4csc(SC)n4)cc23)c1F [Example 87, N-(2,4-difluoro-3-(5-(2-(methylthio)thiazol-4-yl)-1H-pyrrolo[2,3-b]pyridine-3-carbonyl)phenyl)propane-1-sulfonamide] | > 10000 | ◯ (30 ≤ PoC) | ◯ (3 ≥ IC50(off-target)/IC50(MKK4)) | ◯ (3 ≥ Ratio) | ◯ (3 ≥ IC50(off-target)/IC50(MKK4)) | ◯ (3 ≥ Ratio) | ◯ (3 ≥ Ratio)
4 | CCCS(=O)(=O)Nc1ccc(F)c(C(=O)c2c[nH]c3ncc(-c4c[nH]c(=O)cn4)cc23)c1F [Example 88, N-(2,4-difluoro-3-(5-(5-oxo-4,5-dihydropyrazin-2-yl)-1H-pyrrolo[2,3-b]pyridine-3-carbonyl)phenyl)propane-1-sulfonamide] | 100 to 1000 | +++ (PoC < 1) | ++ (100 ≥ IC50(off-target)/IC50(MKK4) > 10) | +++ (Ratio > 100) | ◯ (3 ≥ IC50(off-target)/IC50(MKK4)) | +++ (Ratio > 100) | + (10 ≥ ratio > 3)
5 | CCCS(=O)(=O)Nc1ccc(F)c(C(=O)c2c[nH]c3ncc(-c4cc[nH]c4)cc23)c1F [Example 100, N-(3-(5-(1H-pyrrol-3-yl)-1H-pyrrolo[2,3-b]pyridine-3-carbonyl)-2,4-difluorophenyl)propane-1-sulfonamide] | > 10000 | + (3 ≤ PoC < 30) | ◯ (3 ≥ IC50(off-target)/IC50(MKK4)) | ++ (100 ≥ ratio > 10) | ◯ (3 ≥ IC50(off-target)/IC50(MKK4)) | ++ (100 ≥ ratio > 10) | ◯ (3 ≥ Ratio)
6 | CCCS(=O)(=O)Nc1ccc(F)c(C(=O)c2c[nH]c3ncc(C4CCC4)cc23)c1F [Example 123, N-(3-(5-cyclobutyl-1-pyrrolo[2,3-b]pyridine-3-carbonyl)-2,4-difluorophenyl)propane-1-sulfonamide] | 100 to 1000 | +++ (PoC < 1) | +++ (IC50(off-target)/IC50(MKK4) > 100) | +++ (Ratio > 100) | ◯ (3 ≥ IC50(off-target)/IC50(MKK4)) | +++ (Ratio > 100) | ++ (100 ≥ ratio > 10)
